Source: patent publication US20220265759A1, “COMPOSITION AND METHOD FOR PROMOTING WOUND HEALING” (THE BOARD OF TRUSTEES OF THE UNIVERSITY OF ILLIOIS, priority 2019, published 2022)
Entries after “also recorded” stand apart in the source; their conditions may differ. Peptide text beside a SMILES is read from it. * marks the point of attachment. Myristoyl = CCCCCCCCCCCCCC(=O)*

Experiments:
eNOS [1] = experiment: Immunoblot of eNOS phosphorylation in endothelial cells; format: cell-based, human; settings: in presence of peptide
Protocol: (§1) Immunoblot and Co-Immunoprecipitation (Co-IP). After serum starvation, inhibitors were added 45 minutes prior to stimulation for indicated times at 37° C., and cells were then collected and lysed for western blot analysis. After probing for p-eNOS (Ser1177), p-p85 (Tyr458), p-Src (Tyr 416), and p-ERK (T202/Y204), the same blots were stripped and re-probed for total proteins mentioned above. For detection of CCL28-induced protein levels of β-catenin and Bcl-2, near-confluent endothelial cells were incubated with 500 ng/ml CCL28 for 24 hours in EGM-2 medium containing 1% FBS.

eNOS [2] = experiment: eNOS protein level in WT mouse wounds; format: in vivo, WT C57BL/6 mice; settings: day 7, compared to control peptide
eNOS [3] = experiment: eNOS expression in db/db mouse wounds (western blot); format: in vivo, db/db mice; settings: day 12
Protocol: as §1
(§2) Two 8 mm full thickness excisional wounds were made on the dorsal skin of diabetic db/db mice and then 50 μl of 50 μM Myr-CBD7 peptide was topically applied. […] Reduced CCR10-eNOS interaction was also observed in the mouse wounds following treatment with Myr-CBD7 peptide as determined by Co-IP (FIG. 6).

CCR10-eNOS interaction = molecular target: T1, CCR10-eNOS interaction (Mus musculus, UniProt Q9JL21); experiment: Co-IP of CCR10-eNOS interaction in db/db mouse wounds; format: in vivo, db/db mice; settings: day 12, vs Ctl-P
T1 construct: cells or mouse wounds were collected after treatment, and lysed in 2% ODG in Tris buffer; tissue Jackson Laboratory; host or cells: dorsal skin wounds of WT C57BL/6 or db/db mice
T1 sequence (Q9JL21 1-362): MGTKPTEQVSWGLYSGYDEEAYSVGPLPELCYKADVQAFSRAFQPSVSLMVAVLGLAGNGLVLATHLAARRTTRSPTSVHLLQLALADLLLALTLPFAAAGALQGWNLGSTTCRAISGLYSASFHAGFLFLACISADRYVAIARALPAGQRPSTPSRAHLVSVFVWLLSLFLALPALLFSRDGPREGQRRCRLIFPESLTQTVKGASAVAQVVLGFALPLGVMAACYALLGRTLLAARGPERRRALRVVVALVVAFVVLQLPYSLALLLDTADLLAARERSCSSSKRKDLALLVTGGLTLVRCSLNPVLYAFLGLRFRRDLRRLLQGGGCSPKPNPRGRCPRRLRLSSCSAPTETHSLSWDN
Protocol: (§3) Co-IP Experiments, cells or mouse wounds were collected after treatment, and lysed in 2% ODG in Tris buffer. The homogenates were further prepared for Co-IP experiments as described in the art (Chen, et al. (2018) Mol. Biol. Cell 29(10):1190-1202; Chen, et al. (2020) FASEB J. 34(4):5838-5850; Chen, et al. (2015) Ann. Rheum. Dis. 74:1898-1906).
as §2

CD31 = experiment: Microvessel density (CD31 staining) in db/db mouse wounds; format: in vivo, db/db mice; settings: day 12
Excerpt: CD31 Staining in Mouse Wound Tissue. Formalin-fixed mouse skin samples were processed on ASP300 S automated tissue processor (Leica Biosystems, Buffalo Grove, Ill.) using a standard overnight processing protocol and embedded into paraffin blocks. Tissue was sectioned at 5 μm and stained with rabbit anti-CD31 antibody. Sections were deparaffinized, rehydrated, and stained on BOND″ RX automated stainer (Leica Biosystems, Buffalo Grove, Ill.) using a preset protocol. In brief, sections were subjected to EDTA-based antigen retrieval with BOND™ ER2 solution (Leica Biosystems, Buffalo Grove, Ill.) for 20 minutes at 100° C. Endogenous peroxidase activity and non-specific binding was blocked by treating samples with peroxidase block and protein block with Background Sniper (Biocare Medical, Pacheco, Calif.) for 15 minutes and 30 minutes at room temperature, respectively. Sections were then incubated with the primary antibody diluted at 1:200 for 30 minutes at room temperature. BOND™ Polymer Refine Detection kit (Leica Biosystems, Buffalo Grove, Ill.) was used for detection. […]
as §2

[4] = test system: eNOS and CCR10 interaction with LAMP1; experiment: eNOS internalization and degradation in HDMVECs stimulated with CCL28 (Co-IP with LAMP1, confocal microscopy); format: cell-based, human
Protocol: as §3
Confocal Microscopy. For cellular immunostaining, confluent monolayers of cells grown on coverslips were prepared as described previously (Chen, et al. (2012) Mel. Biol. Cell 23(7):1388-1398). Fluorescent images were obtained using a Zeiss LSM 880 confocal microscope. The co-localization coefficient in specified regions of interest (ROI) were determined using Zeiss Zen software. Briefly, using the Overlay tool, the desired ROI was drawn along the cell edge and the values for the ROIs tabulated. The scatterplot and table were automatically adjusted to the pixel distribution for the selected ROI. The data from different treatment groups were collected and analyzed for statistical significance as described previously (Chen, et al. (2020) FASEB J. 34(4):5838-5850). […]
Since myristoylated 7 amino acid CCR10-binding domain (Myr-CBD7) peptide can block eNOS interaction with CCR10 and increase eNOS activity in HUVECs, it was assessed whether Myr-CBD7 can prevent eNOS internalization and degradation in HDMVECs following CCL28 stimulation. […]

CCCCCCCCCCCCCC(=O)N[C@@H](CCCCN)C(=O)N[C@H](C(=O)N[C@@H](CO)C(=O)N[C@@H](C)C(=O)N[C@@H](CO)C(=O)N[C@@H](CC(C)C)C(=O)N[C@@H](CCSC)C(=O)O)[C@@H](C)CC [Myr-CBD7, myr-KISASLM] (Myristoyl-KISASLM-OH)
eNOS phosphorylation (Ser1177) (eNOS [1]): significantly enhanced | eNOS protein level in wounds (eNOS [2]): enhanced | eNOS expression in wounds (eNOS [3]): significantly elevated | CCR10-eNOS interaction in wounds (Co-IP) (CCR10-eNOS interaction): Reduced; also recorded: disrupted | microvessel density (CD31 staining) (CD31): enhanced | eNOS interaction with LAMP1 ([4]; HDMVECs, pretreatment, CCL28 stimulation, compared to scrambled control peptide): prevented | eNOS localization (confocal microscopy) ([4]; pretreatment prior to CCL28 for 3 hours): remained on the plasma membrane
